The results in this text go back to patent US8158621B2, “Methods of treating or preventing autoimmune diseases with 2,4-pyrimidinediamine compounds” (Rigel Pharmaceuticals, Inc., priority 2002, dated 2012).

Read-outs that look alike come from different tables or passages of the source.

Holding throughout (assay type): cell-based
The subject of assay [1] is cultured human mast cells (CHMC). The assay is described as follows: CHMC low cell density ionomycin activation: tryptase assay. Particulars: read-out: CHMC Ionomycin Tryptase.
Assay [2] shares this test system. The assay is described as follows: CHMC low cell density IgE activation: tryptase assay. As to the method:
Pellet CHMC cells (980 rpm, 10 min) and resuspend in pre-warmed MT. Add 65 ul of cells to each 96-well plate. Depending on the degranulation activity for each particular CHMC donor, load 1000-1500 cells/well. Mix four times followed by a 1 hr incubation at 37° C. […] Stimulate cells by adding 25 ul of 6× anti-IgE solution to the appropriate plates. Add 25 ul MT to un-stimulated control wells. Mix twice following addition of the anti-IgE. Incubate at 37° C. for 30 minutes. […] Spin plates at 1000 rpm for 10 min to pellet cells. Transfer 25 ul of supernatant to a 96-well black bottom plate and add 100 ul of freshly diluted tryptase substrate solution to each well. Incubate plates at room temperature for 30 min.

In assay [3] the test system is Human Jurkat T-cells (clone N). As to the kind of experiment: Jurkat T-cell activation (anti-TCR, CD69 upregulation). An outline of the steps: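 Readout is CD69 upregulation by flow cytometry (anti-CD69-APC, 20 min at 4 °C) after 20 h anti-TCR (C305, 500 ng/ml) stimulation at 37 °C.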
Where [4] appears, read: low cell density, read-out: CHMC anti-IgE Tryptase.
[5] abbreviates: Homo sapiens, Mast cell, Low Density CHMC, anti-IgE activation, tryptase release, read-out: CHMC anti-IgE Tryptase IC50.
The mark [6] stands for this setting: Homo sapiens, Mast cell, Low Density, read-out: CHMC anti-IgE Tryptase.

Take `CNC(=O)COc1cccc(Nc2ncc(F)c(Nc3ccc4c(c3)C(NC(=O)OC(C)(C)C)CCO4)n2)c1` (racemic) [Compound R950405]: the IC50 in assay [1] (low cell density) is above 10 µM; in assay [2] (setting [4]) it was 1.36 µM.
For `CC(C)[C@@H]1CC[C@@H](C)C[C@H]1OC(=O)[C@H]1Cc2cc(Nc3ncc(F)c(Nc4ccc5c(c4)NC(=O)C(F)(F)O5)n3)ccc2O1` [Compound R927063], the IC50 in assay [1] (low cell density) is above 10 µM; in assay [2] (setting [4]) it was 0.849 µM.
On to `COc1cc(Nc2ncc(F)c(Nc3ccc(OC(F)(F)F)c(Cl)c3)n2)cc(OC)c1` [Compound R927067], for which the IC50 stood at 22.5 µM in assay [1] (low cell density) and 0.625 µM in assay [2] (setting [4]).
Regarding `COc1ccc(Nc2nc(Nc3ccc4c(cnn4CCCO)c3)ncc2F)cc1Cl` [Compound R935461], the IC50 amounted to 5.03 µM in assay [1] (low cell density) and 0.134 µM in assay [2] (setting [4]).
Regarding `Cc1cc(Nc2nc(Nc3cccc(OCCN4CCOCC4)c3)ncc2F)cc(Cl)c1O` [Compound R940269], the values for the IC50 in assay [1] (Low Density) and in assay [3] were above 10 µM and 1.9 µM, respectively.
For `COc1c(Cl)cc(Nc2ncc(F)c(Nc3ccc4c(c3)NC(=O)[C@H](C)O4)n2)cc1Cl` [Compound R908946], the IC50 in assay [1] (low cell density) was above 10 µM; in assay [2] (setting [4]), 0.51 µM.
Turning to `O=C1COc2ccc(Nc3nc(Nc4cccc(Br)c4)ncc3F)nc2N1` [Compound R945455], in assay [1] (low cell density), the IC50 was above 10 µM.
As for `COc1cc(Nc2ncc(F)c(Nc3ccc4c(c3)NC(=O)[C@@H](C)O4)n2)cc(OC)c1` [Compound R908954], the IC50 in assay [1] (low cell density) was above 10 µM.
Regarding `COc1ccc(Nc2nc(Nc3cccc(OCC(=O)NC4CCC4)c3)ncc2F)cc1Cl` [Compound R926969], the IC50 was above 10 µM in assay [1] (low cell density) and 0.359 µM in assay [2] (setting [4]).
Regarding `CN1C=COc2ccc(Nc3nc(Nc4cccc(O)c4)ncc3F)cc21` [Compound R908710], the IC50 in assay [2] (Low Density, read-out: CHMC anti-IgE Tryptase) came to 1.84 µM; in assay [3], 4.28 µM.
In the case of `CNC(=O)n1ccc2ccc(Nc3nc(Nc4cc(C)cc(C)c4)ncc3F)cc21` [Compound R927099], the IC50 in assay [1] (low cell density) and in assay [2] (setting [4]) was above 10 µM each time.
For the molecule `O=C(COc1cccc(Nc2ncc(F)c(NC3CC3)n2)c1)NC1CCC1` [Compound R945364], the IC50 was above 10 µM in assay [1] (low cell density) and 1 µM in assay [2] (setting [4]).
On to `Cn1ncc2ccc(Nc3ncc(F)c(Nc4ccc5c(c4)OCCO5)n3)cc21` [Compound R935392], for which the IC50 was above 10 µM in assay [1] (low cell density) and 0.204 µM in assay [2] (setting [4]).
With `COc1cc(Nc2ncc(F)c(Nc3ccc4c(c3)NC(=O)C(CCO)O4)n2)cc(OC)c1` (racemic) [Compound R908950], the values for the IC50 in assay [1] (low cell density) and in assay [2] (setting [4]) were 47.5 µM and 0.074 µM, respectively.
On to `CCN(CC)CCCNc1ncc(F)c(Nc2ccc3c(c2)C(=O)NC(=O)C3(C)C)n1` [Compound R950472], for which the values for the IC50 in assay [1] (low cell density) and in assay [2] (setting [4]) were above 10 µM and 6.95 µM, respectively.
Take `CNC(=O)COc1cccc(Nc2ncc(F)c(Nc3ccc(OCCO)c(Cl)c3)n2)c1` [Compound R927047]: the IC50 in assay [1] (low cell density) is above 10 µM; in assay [2] (setting [4]) it was 0.168 µM.
As for `Oc1cccc(Nc2ncc(F)c(Nc3ccc4c(c3)OCCO4)n2)c1` [Compound R925796], the IC50 in assay [2] (setting [5]) stood at 2 µM; in assay [3] (Homo sapiens, Jurkat) it was 1.83 µM.
Turning to `CCOC(=O)C=C1NN=C(c2cccc(Nc3nc(Cl)ncc3F)c2)O1` [Compound R926873], the IC50 was above 10 µM in assay [2] (setting [6]) and above 10 µM in assay [3] (Homo sapiens, Jurkat).
Consider `O=C(COc1cccc(Nc2ncc(F)c(NC3CCC3)n2)c1)NC1CC1` [Compound R945393], for which the results for the IC50 in assay [1] (low cell density) and in assay [2] (setting [4]) were 21.7 µM and 1.34 µM, respectively.
As to `COc1ccc(Nc2ncc(F)c(Nc3ccc4c(c3)NC(C)(C)CO4)n2)cc1Cl` [Compound R908587], the IC50 in assay [1] (low cell density) was above 10 µM.
Turning to `CNC(=O)COc1cccc(Nc2ncc(F)c(Nc3ccc4c(c3)C(N(C)C(=O)CN(C)C)CCO4)n2)c1` (racemic) [Compound R950419], the IC50 in assay [1] (low cell density) is above 10 µM; in assay [2] (setting [4]), 3.26 µM.
Consider `COc1c(Cl)cc(Nc2ncc(F)c(Nc3ccc4c(c3)C(N)CCO4)n2)cc1Cl` (racemic) [Compound R950424], for which the figures for the IC50 in assay [1] (low cell density) and in assay [2] (setting [4]) were 4.28 µM and 0.236 µM, respectively.
With `Fc1cnc(Cl)nc1Nc1ccc(Cl)c(C(F)(F)F)c1` [Compound R926877], the IC50 was above 10 µM in assay [2] (setting [6]) and above 10 µM in assay [3] (Homo sapiens, Jurkat).
On to `Fc1cnc(Cl)nc1Nc1ccc(Cl)c(Cl)c1` [Compound R926884], for which the IC50 in assay [2] (setting [6]) is above 10 µM; in assay [3] (Homo sapiens, Jurkat), above 10 µM.
As for `O=C1COc2ccc(Nc3ncc(F)c(Nc4cccc(O)c4)n3)cc2N1` [Compound R909238], the IC50 was determined as 0.174 µM in assay [2] (setting [5]) and 5.02 µM in assay [3] (Homo sapiens, Jurkat).
For `CNC(=O)COc1cccc(Nc2ncc(F)c(Nc3ccc4c(c3)NC(=O)C(C)(C(=O)NC)O4)n2)c1` (racemic) [Compound R940365], in assay [1] (low cell density), the IC50 was above 10 µM.
Regarding `CC1(C)Oc2ccc(Nc3nc(Nc4ccc5cn[nH]c5c4)ncc3F)cc2NC1=O` [Compound R935430], in assay [1] (low cell density), the IC50 was 9.3 µM.
With `CNC(=O)COc1cccc(Nc2ncc(F)c(Nc3ccc4c(c3)[C@H](N)CCO4)n2)c1` [Compound R950421], the IC50 in assay [1] (low cell density) is above 10 µM.
Regarding `Fc1cnc(Cl)nc1Nc1ccc(C(F)(F)F)cc1` [Compound R926876], the IC50 was above 10 µM in assay [2] (setting [6]) and above 10 µM in assay [3] (Homo sapiens, Jurkat).
For the molecule `Cc1cc(C)cc(Nc2ncc(F)c(Nc3ccc4c(c3)NC(=O)C(C)(C)O4)n2)c1` [Compound R927075], in assay [1] (low cell density), the IC50 is 15.2 µM.
For `COc1ccc(Nc2nc(Cl)ncc2F)cn1` [Compound R926878], the IC50 in assay [2] (setting [6]) was above 10 µM; in assay [3] (Homo sapiens, Jurkat), above 10 µM.
In the case of `Cc1cccc(Nc2nc(Cl)ncc2F)n1` [Compound R926888], the IC50 in assay [2] (setting [6]) was above 10 µM; in assay [3] (Homo sapiens, Jurkat), 5.58 µM.
`COC1=CC=C(Nc2nc(Cl)ncc2F)CC1=CN(C(=O)OC(C)(C)C)C(C)C` [Compound R940320]: the IC50 is above 10 µM in assay [2] (setting [6]) and 7.82 µM in assay [3] (Homo sapiens, Jurkat).
In the case of `Cc1cc(C)cc(Nc2ncc(F)c(Nc3ccc4c(c3)NC(C)(C)CO4)n2)c1` [Compound R908586], the IC50 in assay [1] (low cell density) is above 10 µM.
In the case of `COC(=O)c1cc(Nc2nc(Nc3ccc(OC(C)C)cc3)ncc2F)cn1C` [Compound R935165], the IC50 in assay [1] (Low Density) and in assay [3] was above 10 µM in each case.
Regarding `Fc1cnc(Cl)nc1Nc1ccc(OC(F)(F)F)cc1` [Compound R926875], the IC50 in assay [2] (setting [6]) was above 10 µM; in assay [3] (Homo sapiens, Jurkat), above 10 µM.
Turning to `COc1ccc(Nc2nc(Nc3ccc4c(cnn4C)c3)ncc2F)cc1Cl` [Compound R935458], the IC50 in assay [1] (low cell density) is above 10 µM.
Consider `Fc1ccc(Nc2nc(Cl)ncc2F)cc1F` [Compound R926882], for which the IC50 is above 10 µM in assay [2] (setting [6]) and 9.05 µM in assay [3] (Homo sapiens, Jurkat).
For the molecule `CC1(C)C(=O)NC(=O)c2cc(Nc3nc(Nc4ccc(C(N)=O)cc4)ncc3F)ccc21` [Compound R950453], the IC50 in assay [1] (low cell density) was above 10 µM.
For `CNC(=O)COc1cccc(Nc2ncc(F)c(Nc3ccc4c(c3)NC(=O)C(F)(F)O4)n2)c1` [Compound R945415], the IC50 in assay [2] (setting [4]) was found to be 0.046 µM.
`COc1c(Cl)cc(Nc2ncc(F)c(Nc3ccc(OC(F)(F)F)c(Cl)c3)n2)cc1Cl` [Compound R927055]: the IC50 in assay [2] (setting [4]) is above 10 µM.
`COC(=O)N1CCN(c2ccc(Nc3ncc(F)c(NC4CCC4)n3)cc2)CC1` [Compound R945386]: in assay [2] (setting [4]), the IC50 came out at 1.39 µM.
As for `COc1ccc(Nc2nc(Nc3cc(Cl)c(OC)c(Cl)c3)ncc2F)cc1Cl` [Compound R927054], in assay [2] (setting [4]), the IC50 was above 10 µM.
As for `C[C@@H]1Oc2ccc(Nc3nc(Nc4ccc(C(N)=O)cc4)ncc3F)cc2NC1=O` [Compound R950452], in assay [2] (setting [4]), the IC50 came out at 0.101 µM.
For the molecule `CC(C)(C)OC(=O)NC1CCOc2ccc(Nc3ncc(F)c(Nc4ccc(Cl)c(Cl)c4)n3)cc21` (racemic) [Compound R950433], in assay [2] (setting [4]), the IC50 was above 10 µM.
The same measure, in the same setting: to `COc1cc(Nc2ncc(F)c(Nc3ccc4cn[nH]c4c3)n2)cc(OC)c1` [Compound R935423] belongs 0.167 µM.
With `COC(=O)N1CCN(c2ccc(Nc3nc(NC4CCC4)ncc3F)cc2)CC1` [Compound R945374], in assay [2] (setting [4]), the IC50 was above 10 µM.
In the case of `COC(=O)c1ccc(Cn2cc3ccc(Nc4ncc(F)c(Nc5ccc(Cl)c(Cl)c5)n4)cc3n2)c(OC)c1` [Compound R935396], the IC50 in assay [2] (setting [4]) stood at 2.58 µM.
With `Fc1cnc(Cl)nc1Nc1ccc2ncccc2c1` [Compound R920409], the IC50 in assay [2] (setting [6]) was above 10 µM.
`CC(=O)N(C)c1ccc(Nc2nc(NC3CCC3)ncc2F)cc1` [Compound R945379]: in assay [2] (setting [4]), the IC50 is above 10 µM.
On to `CNC(=O)COc1cccc(Nc2ncc(F)c(NC3CCC3)n2)c1` [Compound R945387], for which the IC50 in assay [2] (setting [4]) stood at 1.12 µM.
Turning to `CNC(=O)COc1cccc(Nc2ncc(F)c(Nc3ccc4c(c3)C(NC(=O)CN(C)C)CCO4)n2)c1` (racemic) [Compound R950416], in assay [2] (setting [4]), the IC50 came out at 2.27 µM.
Regarding `CC1Oc2ccc(Nc3nc(Nc4ccc5c(c4)C(N)CCO5)ncc3F)cc2NC1=O` (mixture of isomers) [Compound R950438], in assay [2] (setting [4]), the IC50 stood at 0.888 µM.
Take `C[C@@H]1Oc2ccc(Nc3nc(Nc4ccc(CNC(=O)OC(C)(C)C)cc4)ncc3F)cc2NC1=O` [Compound R950460]: the IC50 in assay [2] (setting [4]) came out at 0.177 µM.
Regarding `COC(=O)COc1cccc(Nc2ncc(F)c(Nc3ccc4c(n3)NC(=O)C(C)(C)O4)n2)c1` [Compound R940392], the IC50 in assay [2] (setting [4]) came to 0.145 µM.
